In patent US20040121489A1, “COX-2 mediated altered prostaglandin balance in diabetes complications” (priority 2002, published 2004):

What was measured:
urinary PGE2/TXB2 ratio = test: Selective COX-2 and COX-1 blockage in mice, urinary PGE2/TXB2 ratio pre- and post-intervention; format: in vivo, mice (NOD, B6, B6.NODc1t)
Experimental: Urine was directly aliquoted and stored at −70° C. until assay. Enzyme immunoassay was used to particularly detect renal derived metabolites and the systemic derived metabolites. […] The EIA kits utilize a competitive binding assay between unlabeled compound from the specimen sample and a fixed quantity of peroxidase labeled compound for a limited number of binding sites on a compound specific antibody. Assays were performed in 96 well microtitre plates with 50 μL specimen. The unknown sample was bound to appropriate antiserum and conjugate and optical density read at 450 nm using a BIORAD 3550 UV microplate reader. Raw optical density data was converted to percent binding by plotting the percent binding B/Bo as a function of the log compound concentration. Concentration of the prostanoid compound was then directly calculated in pg/well. This concentration was then converted to pg/mL and subsequently to pg/mg urinary creatinine to adjust for urinary concentration, body size and age. The final ratios of PGE2/TXB2 or PGE2+6kPGF1α/TXB2 were then directly calculated.
Selective COX-2 and COX-1 blockage were analyzed in three groups of mice—NOD mice, B6 mice, and a congenic B6.NODc1t strain.
Eight age-matched female 6-8 week old mice of each strain (NOD, B6, and C1t) were divided into two groups.

COX-2 = biological target: T1, COX-2 (Mus musculus, UniProt Q05769); settings: cited from Zhao et al., Mol. Carcinog. 1999; cited from earlier work
T1 construct: cyclooxygenase 2 and interleukin-1 alpha expression in SENCAR mouse epidermis
T1 sequence (Q05769 18-604): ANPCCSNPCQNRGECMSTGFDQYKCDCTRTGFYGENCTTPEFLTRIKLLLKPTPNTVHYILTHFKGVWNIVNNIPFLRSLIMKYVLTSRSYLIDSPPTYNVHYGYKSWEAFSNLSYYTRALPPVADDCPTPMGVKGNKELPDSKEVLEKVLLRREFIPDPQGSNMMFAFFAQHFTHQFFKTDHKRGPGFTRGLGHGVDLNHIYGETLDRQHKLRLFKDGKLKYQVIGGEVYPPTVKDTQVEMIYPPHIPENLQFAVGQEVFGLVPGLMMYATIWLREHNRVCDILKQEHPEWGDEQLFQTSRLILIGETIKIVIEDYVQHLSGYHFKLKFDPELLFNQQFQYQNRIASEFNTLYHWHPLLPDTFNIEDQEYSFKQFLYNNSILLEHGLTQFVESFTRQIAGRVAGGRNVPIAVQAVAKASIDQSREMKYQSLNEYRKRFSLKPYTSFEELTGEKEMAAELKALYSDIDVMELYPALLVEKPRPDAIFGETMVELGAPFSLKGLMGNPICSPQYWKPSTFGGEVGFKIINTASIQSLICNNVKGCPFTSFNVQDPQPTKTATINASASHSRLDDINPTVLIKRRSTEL

SMILES	increase in the urinary PGE2/TXB2 ratio (urinary PGE2/TXB2 ratio; 10 mg/kg/d i.p. daily for 14 days, all the three strains of mice (NOD, B6, B6.NODc1t), female 6-8 week old)	difference in urinary PGE2/TXB2 (Dunn's simultaneous multiple comparison test) (urinary PGE2/TXB2 ratio; NOD and B6.NODc1t group, COX-2 blocker 10 mg/kg/d i.p. 14 days, pre- vs post-intervention)	COX-2 inhibition relative to COX-1 inhibition (COX-2)
CS(=O)(=O)Nc1ccc([N+](=O)[O-])cc1OC1CCCCC1 [NS-398]	3-7 fold	significant	–
COc1cc(C2Oc3cc([C@H]4Oc5cc(O)cc(O)c5C(=O)[C@@H]4O)ccc3OC2CO)ccc1O (stereo partly drawn) [silybinin]	–	–	significant COX-2 inhibition
